Measurements as given in patent US8772480B2, “Inhibitors of PI3 kinase and/or mTOR” (priority 2009, dated 2014).

Key:
Assay type in all cases: biochemical
[1] = biological target: ProfilerPro Kinase Selectivity Assay Kit kinases (Homo sapiens, UniProt P24941); details: CDK2; 1 μM compound concentration
Method: (§1) Compounds were profiled using a LabChip® EZ Reader II platform and a ProfilerPro Kinase Selectivity Assay Kit (Caliper Lifesciences Inc., Hopkinton, Mass.). Compounds were tested at a concentration of 1 M in duplicate, with mean data reported as percent of control (POC).

[2] = biological target: ProfilerPro Kinase Selectivity Assay Kit kinases (Homo sapiens, UniProt P07948); details: LYN; 1 μM compound concentration
Method: as §1

[3] = biological target: ProfilerPro Kinase Selectivity Assay Kit kinases (Homo sapiens, UniProt P36888); details: FLT3; 1 μM compound concentration
Method: as §1

[4] = biological target: ProfilerPro Kinase Selectivity Assay Kit kinases (Homo sapiens, UniProt O14757); details: CHK1; 1 μM compound concentration
Method: as §1

[5] = biological target: ProfilerPro Kinase Selectivity Assay Kit kinases (Homo sapiens, UniProt P00519); details: ABL; 1 μM compound concentration
Method: as §1

[6] = biological target: ProfilerPro Kinase Selectivity Assay Kit kinases (Homo sapiens, UniProt O00141); details: SGK1; 1 μM compound concentration
Method: as §1

[7] = biological target: ProfilerPro Kinase Selectivity Assay Kit kinases (Homo sapiens, UniProt P48730); details: CK1 delta; 1 μM compound concentration
Method: as §1

[8] = biological target: ProfilerPro Kinase Selectivity Assay Kit kinases (Homo sapiens, UniProt P43405); details: SYK; 1 μM compound concentration
Method: as §1

[9] = biological target: ProfilerPro Kinase Selectivity Assay Kit kinases (Homo sapiens, UniProt Q9BZL6); details: PKD2; 1 μM compound concentration
Method: as §1

[10] = biological target: ProfilerPro Kinase Selectivity Assay Kit kinases (Homo sapiens, UniProt Q13627); details: DYRK1a; 1 μM compound concentration
Method: as §1

[11] = tested on: ProfilerPro Kinase Selectivity Assay Kit kinases; details: 1 μM compound concentration
Method: as §1

[12] = biological target: ProfilerPro Kinase Selectivity Assay Kit kinases (Homo sapiens, UniProt Q8IW41); details: PRAK; 1 μM compound concentration
Method: as §1

[13] = biological target: ProfilerPro Kinase Selectivity Assay Kit kinases (Homo sapiens, UniProt Q13188); details: MST2; 1 μM compound concentration
Method: as §1

[14] = biological target: ProfilerPro Kinase Selectivity Assay Kit kinases (Homo sapiens, UniProt Q06187); details: BTK; 1 μM compound concentration
Method: as §1

[15] = biological target: ProfilerPro Kinase Selectivity Assay Kit kinases (Homo sapiens, UniProt Q13177); details: PAK2; 1 μM compound concentration
Method: as §1

[16] = biological target: ProfilerPro Kinase Selectivity Assay Kit kinases (Homo sapiens, UniProt P35968); details: KDR; 1 μM compound concentration
Method: as §1

[17] = biological target: ProfilerPro Kinase Selectivity Assay Kit kinases (Homo sapiens, UniProt P49137); details: MAPKAPK2; 1 μM compound concentration
Method: as §1

[18] = biological target: ProfilerPro Kinase Selectivity Assay Kit kinases (Homo sapiens, UniProt P17612); details: PKA alpha; 1 μM compound concentration
Method: as §1

[19] = biological target: ProfilerPro Kinase Selectivity Assay Kit kinases (Homo sapiens, UniProt O95819); details: HGK; 1 μM compound concentration
Method: as §1

[20] = biological target: ProfilerPro Kinase Selectivity Assay Kit kinases (Homo sapiens, UniProt P06213); details: INSR; 1 μM compound concentration
Method: as §1

[21] = biological target: ProfilerPro Kinase Selectivity Assay Kit kinases (Homo sapiens, UniProt P08069); details: IGF1R; 1 μM compound concentration
Method: as §1

[22] = biological target: ProfilerPro Kinase Selectivity Assay Kit kinases (Homo sapiens, UniProt O14965); details: AURORA A; 1 μM compound concentration
Method: as §1

[23] = biological target: ProfilerPro Kinase Selectivity Assay Kit kinases (Homo sapiens, UniProt O75582); details: MSK1; 1 μM compound concentration
Method: as §1

[24] = biological target: ProfilerPro Kinase Selectivity Assay Kit kinases (Homo sapiens, UniProt O75116); details: ROCK2; 1 μM compound concentration
Method: as §1

[25] = biological target: ProfilerPro Kinase Selectivity Assay Kit kinases (Homo sapiens, UniProt P27361); details: ERK1; 1 μM compound concentration
Method: as §1

[26] = biological target: ProfilerPro Kinase Selectivity Assay Kit kinases (Homo sapiens, UniProt P12931); details: SRC; 1 μM compound concentration
Method: as §1

[27] = biological target: ProfilerPro Kinase Selectivity Assay Kit kinases (Homo sapiens, UniProt P08581); details: cMET; 1 μM compound concentration
Method: as §1

[28] = biological target: ProfilerPro Kinase Selectivity Assay Kit kinases (Homo sapiens, UniProt P06241); details: FYN; 1 μM compound concentration
Method: as §1

[29] = biological target: ProfilerPro Kinase Selectivity Assay Kit kinases (Homo sapiens, UniProt P11362); details: FGFR1; 1 μM compound concentration
Method: as §1

[30] = biological target: ProfilerPro Kinase Selectivity Assay Kit kinases (Homo sapiens, UniProt Q9P0L2); details: MARK1; 1 μM compound concentration
Method: as §1

[31] = biological target: ProfilerPro Kinase Selectivity Assay Kit kinases (Homo sapiens, UniProt P31751); details: AKT2; 1 μM compound concentration
Method: as §1

Sequence of ProfilerPro Kinase Selectivity Assay Kit kinases (Homo sapiens, UniProt P27361) (P27361 2-379 limits assumed): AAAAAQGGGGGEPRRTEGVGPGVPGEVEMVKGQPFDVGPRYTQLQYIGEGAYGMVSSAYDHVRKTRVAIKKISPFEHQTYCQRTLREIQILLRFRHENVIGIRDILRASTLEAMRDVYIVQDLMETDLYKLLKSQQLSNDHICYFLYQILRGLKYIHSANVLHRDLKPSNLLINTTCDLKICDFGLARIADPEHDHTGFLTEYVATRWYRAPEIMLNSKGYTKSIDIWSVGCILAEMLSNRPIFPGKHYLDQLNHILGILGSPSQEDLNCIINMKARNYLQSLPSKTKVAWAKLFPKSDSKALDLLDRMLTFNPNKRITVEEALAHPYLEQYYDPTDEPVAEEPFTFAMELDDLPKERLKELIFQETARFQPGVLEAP
Sequence of ProfilerPro Kinase Selectivity Assay Kit kinases (Homo sapiens, UniProt Q06187) (Q06187 2-659 limits assumed): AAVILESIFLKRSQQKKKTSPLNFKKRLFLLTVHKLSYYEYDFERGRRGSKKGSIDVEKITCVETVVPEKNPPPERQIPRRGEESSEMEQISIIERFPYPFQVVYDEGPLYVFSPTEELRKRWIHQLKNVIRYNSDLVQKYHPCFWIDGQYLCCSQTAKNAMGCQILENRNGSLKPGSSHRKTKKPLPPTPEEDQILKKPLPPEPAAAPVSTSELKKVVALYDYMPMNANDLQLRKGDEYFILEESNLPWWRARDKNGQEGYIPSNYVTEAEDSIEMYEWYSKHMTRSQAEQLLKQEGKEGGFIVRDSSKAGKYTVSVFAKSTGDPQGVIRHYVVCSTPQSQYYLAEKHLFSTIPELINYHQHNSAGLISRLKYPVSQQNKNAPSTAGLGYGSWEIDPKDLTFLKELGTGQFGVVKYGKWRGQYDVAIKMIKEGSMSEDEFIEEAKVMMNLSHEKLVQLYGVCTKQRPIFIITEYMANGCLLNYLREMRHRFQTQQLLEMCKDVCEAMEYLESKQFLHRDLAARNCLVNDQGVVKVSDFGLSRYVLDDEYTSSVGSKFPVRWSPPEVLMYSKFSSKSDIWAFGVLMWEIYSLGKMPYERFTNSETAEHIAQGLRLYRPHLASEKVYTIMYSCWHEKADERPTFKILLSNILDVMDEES
Sequence of ProfilerPro Kinase Selectivity Assay Kit kinases (Homo sapiens, UniProt P11362) (P11362 22-822 limits assumed): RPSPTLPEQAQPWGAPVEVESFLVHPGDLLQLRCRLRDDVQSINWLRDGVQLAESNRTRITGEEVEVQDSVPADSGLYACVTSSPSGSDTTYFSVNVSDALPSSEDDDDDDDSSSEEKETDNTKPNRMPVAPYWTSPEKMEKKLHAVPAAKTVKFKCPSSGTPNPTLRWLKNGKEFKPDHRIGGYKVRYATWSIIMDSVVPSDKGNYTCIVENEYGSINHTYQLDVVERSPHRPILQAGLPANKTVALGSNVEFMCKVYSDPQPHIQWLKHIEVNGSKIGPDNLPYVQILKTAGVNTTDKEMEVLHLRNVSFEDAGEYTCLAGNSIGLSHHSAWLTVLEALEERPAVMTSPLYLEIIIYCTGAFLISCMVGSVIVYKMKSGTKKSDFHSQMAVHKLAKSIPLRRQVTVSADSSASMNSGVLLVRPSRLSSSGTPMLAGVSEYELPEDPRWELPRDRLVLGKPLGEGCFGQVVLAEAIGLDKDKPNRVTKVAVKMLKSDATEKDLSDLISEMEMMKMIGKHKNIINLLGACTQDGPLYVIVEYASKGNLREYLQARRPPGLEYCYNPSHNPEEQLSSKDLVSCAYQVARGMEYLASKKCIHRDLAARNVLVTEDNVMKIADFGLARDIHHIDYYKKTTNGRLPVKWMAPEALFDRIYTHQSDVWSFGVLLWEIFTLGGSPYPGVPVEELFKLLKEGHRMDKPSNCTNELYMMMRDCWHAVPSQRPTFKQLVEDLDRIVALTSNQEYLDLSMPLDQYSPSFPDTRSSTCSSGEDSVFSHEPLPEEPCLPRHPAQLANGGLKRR
Sequence of ProfilerPro Kinase Selectivity Assay Kit kinases (Homo sapiens, UniProt P12931) (P12931 2-536 limits assumed): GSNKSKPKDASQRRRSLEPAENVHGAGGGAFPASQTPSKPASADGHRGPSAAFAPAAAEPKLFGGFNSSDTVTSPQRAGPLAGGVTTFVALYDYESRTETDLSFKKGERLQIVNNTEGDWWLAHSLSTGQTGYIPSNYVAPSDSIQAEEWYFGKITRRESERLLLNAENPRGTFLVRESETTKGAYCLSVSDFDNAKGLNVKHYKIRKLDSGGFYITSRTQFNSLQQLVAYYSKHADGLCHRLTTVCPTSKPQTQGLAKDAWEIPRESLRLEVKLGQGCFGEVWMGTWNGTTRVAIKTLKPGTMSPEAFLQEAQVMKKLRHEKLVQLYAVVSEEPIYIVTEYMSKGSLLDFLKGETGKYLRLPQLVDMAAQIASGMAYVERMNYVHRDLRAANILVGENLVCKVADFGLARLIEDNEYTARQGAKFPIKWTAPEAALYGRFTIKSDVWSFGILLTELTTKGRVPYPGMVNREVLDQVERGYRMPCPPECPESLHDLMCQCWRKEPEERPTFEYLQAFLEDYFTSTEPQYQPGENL
Sequence of ProfilerPro Kinase Selectivity Assay Kit kinases (Homo sapiens, UniProt P06241) (P06241 2-537 limits assumed): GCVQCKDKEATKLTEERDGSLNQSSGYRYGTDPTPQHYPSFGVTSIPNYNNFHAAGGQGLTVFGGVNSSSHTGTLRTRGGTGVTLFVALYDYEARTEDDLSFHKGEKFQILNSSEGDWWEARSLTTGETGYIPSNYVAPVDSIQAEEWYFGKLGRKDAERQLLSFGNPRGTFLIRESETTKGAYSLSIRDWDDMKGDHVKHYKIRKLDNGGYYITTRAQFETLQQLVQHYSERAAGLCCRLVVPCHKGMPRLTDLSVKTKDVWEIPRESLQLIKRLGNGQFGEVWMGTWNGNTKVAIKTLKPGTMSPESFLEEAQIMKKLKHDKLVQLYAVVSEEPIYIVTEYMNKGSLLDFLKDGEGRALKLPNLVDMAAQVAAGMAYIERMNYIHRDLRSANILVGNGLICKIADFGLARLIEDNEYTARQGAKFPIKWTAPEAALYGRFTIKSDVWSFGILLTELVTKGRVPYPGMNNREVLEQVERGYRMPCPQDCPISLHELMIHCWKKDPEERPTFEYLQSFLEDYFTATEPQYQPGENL
Sequence of ProfilerPro Kinase Selectivity Assay Kit kinases (Homo sapiens, UniProt Q13177) (Q13177 2-524 limits assumed): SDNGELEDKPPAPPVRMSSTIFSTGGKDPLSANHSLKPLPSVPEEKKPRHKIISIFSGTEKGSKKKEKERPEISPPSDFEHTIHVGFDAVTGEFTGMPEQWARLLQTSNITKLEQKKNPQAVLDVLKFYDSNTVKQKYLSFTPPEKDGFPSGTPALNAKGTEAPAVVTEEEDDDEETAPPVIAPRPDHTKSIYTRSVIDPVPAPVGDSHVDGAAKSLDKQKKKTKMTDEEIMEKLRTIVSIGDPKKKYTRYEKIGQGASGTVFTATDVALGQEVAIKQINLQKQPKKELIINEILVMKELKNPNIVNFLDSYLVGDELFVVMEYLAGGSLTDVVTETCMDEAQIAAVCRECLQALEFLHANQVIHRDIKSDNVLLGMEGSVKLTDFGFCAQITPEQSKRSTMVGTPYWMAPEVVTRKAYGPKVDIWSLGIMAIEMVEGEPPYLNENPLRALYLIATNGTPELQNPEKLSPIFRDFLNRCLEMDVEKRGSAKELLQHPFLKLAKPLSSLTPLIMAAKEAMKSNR
Sequence of ProfilerPro Kinase Selectivity Assay Kit kinases (Homo sapiens, UniProt P07948) (P07948 2-512 limits assumed): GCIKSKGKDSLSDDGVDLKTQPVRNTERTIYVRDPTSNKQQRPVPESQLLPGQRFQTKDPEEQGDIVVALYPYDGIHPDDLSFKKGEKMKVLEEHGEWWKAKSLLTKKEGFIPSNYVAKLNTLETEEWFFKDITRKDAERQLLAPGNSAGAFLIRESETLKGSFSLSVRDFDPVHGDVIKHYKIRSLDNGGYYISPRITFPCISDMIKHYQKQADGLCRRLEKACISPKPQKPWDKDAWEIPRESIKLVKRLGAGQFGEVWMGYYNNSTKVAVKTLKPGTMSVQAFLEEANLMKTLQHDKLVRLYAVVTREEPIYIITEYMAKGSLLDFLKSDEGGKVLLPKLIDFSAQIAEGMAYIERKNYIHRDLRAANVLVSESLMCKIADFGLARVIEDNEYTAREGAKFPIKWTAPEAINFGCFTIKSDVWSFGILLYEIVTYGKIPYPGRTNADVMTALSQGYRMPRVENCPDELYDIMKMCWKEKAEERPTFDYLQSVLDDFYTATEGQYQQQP
Sequence of ProfilerPro Kinase Selectivity Assay Kit kinases (Homo sapiens, UniProt P36888) (P36888 27-993 limits assumed): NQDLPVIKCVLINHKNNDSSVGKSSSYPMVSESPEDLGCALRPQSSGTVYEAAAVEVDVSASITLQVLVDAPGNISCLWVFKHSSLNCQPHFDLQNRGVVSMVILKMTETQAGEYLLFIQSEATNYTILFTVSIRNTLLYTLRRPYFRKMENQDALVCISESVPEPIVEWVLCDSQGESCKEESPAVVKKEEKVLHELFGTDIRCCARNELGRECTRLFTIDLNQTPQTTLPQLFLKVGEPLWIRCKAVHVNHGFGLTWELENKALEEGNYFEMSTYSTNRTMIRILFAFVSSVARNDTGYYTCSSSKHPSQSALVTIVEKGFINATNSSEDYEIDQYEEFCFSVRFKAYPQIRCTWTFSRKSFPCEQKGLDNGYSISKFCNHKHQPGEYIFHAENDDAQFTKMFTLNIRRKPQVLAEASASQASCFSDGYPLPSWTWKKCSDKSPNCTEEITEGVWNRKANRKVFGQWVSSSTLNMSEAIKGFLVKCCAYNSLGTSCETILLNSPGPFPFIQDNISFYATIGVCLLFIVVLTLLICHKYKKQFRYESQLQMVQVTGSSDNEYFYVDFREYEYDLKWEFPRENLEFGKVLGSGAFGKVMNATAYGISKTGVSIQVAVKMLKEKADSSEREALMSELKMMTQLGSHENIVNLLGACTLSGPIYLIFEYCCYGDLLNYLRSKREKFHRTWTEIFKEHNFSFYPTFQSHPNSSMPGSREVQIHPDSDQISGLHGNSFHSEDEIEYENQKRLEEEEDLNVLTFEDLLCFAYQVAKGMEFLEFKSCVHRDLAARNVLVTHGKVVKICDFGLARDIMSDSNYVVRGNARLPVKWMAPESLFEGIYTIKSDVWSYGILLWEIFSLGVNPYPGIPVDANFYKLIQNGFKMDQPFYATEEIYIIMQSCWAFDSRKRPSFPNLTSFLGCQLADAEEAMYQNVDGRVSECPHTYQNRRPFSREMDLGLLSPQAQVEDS

| SMILES | POC (Percent of control) CDK2 [1] | POC (Percent of control) LYN [2] | POC (Percent of control) FLT3 [3] | POC (Percent of control) CHK1 [4] | POC (Percent of control) ABL [5] | POC (Percent of control) SGK1 [6] | POC (Percent of control) CK1 delta [7] | POC (Percent of control) SYK [8] | POC (Percent of control) PKD2 [9] | POC (Percent of control) DYRK1a [10] | POC (Percent of control) AMPK [11] | POC (Percent of control) CAMK2 [11] | POC (Percent of control) PKC beta2 [11] | POC (Percent of control) TAK1 [11] | POC (Percent of control) PRAK [12] | POC (Percent of control) MST2 [13] | POC (Percent of control) BTK [14] | POC (Percent of control) PAK2 [15] | POC (Percent of control) KDR [16] | POC (Percent of control) MAPKAPK2 [17] | also measured |
| --- | --- | --- | --- | --- | --- | --- | --- | --- | --- | --- | --- | --- | --- | --- | --- | --- | --- | --- | --- | --- | --- |
| CCc1cnc(Nc2ccc(OC)nc2)c(-c2nc(C)nc3[nH]cnc23)c1 [Example 74, 5-ethyl-N-(6-methoxypyridin-3-yl)-3-(2-methyl-9H-purin-6-yl)pyridin-2-amine] | 96 POC | 97 POC | 122 POC | 101 POC | 103 POC | 108 POC | 97 POC | 97 POC | 99 POC | 100 POC | 100 POC | 106 POC | 94 POC | 98 POC | 97 POC | 98 POC | 99 POC | 94 POC | 97 POC | 100 POC | POC (Percent of control) PKA alpha [18]: 102 POC; POC (Percent of control) HGK [19]: 94 POC; POC (Percent of control) INSR [20]: 96 POC; POC (Percent of control) IGF1R [21]: 93 POC; POC (Percent of control) AURORA A [22]: 102 POC; POC (Percent of control) MSK1 [23]: 98 POC; POC (Percent of control) ROCK2 [24]: 101 POC; POC (Percent of control) ERK1 [25]: 99 POC; POC (Percent of control) SRC [26]: 99 POC; POC (Percent of control) cMET [27]: 102 POC; POC (Percent of control) FYN [28]: 104 POC; POC (Percent of control) FGFR1 [29]: 99 POC; POC (Percent of control) MARK1 [30]: 111 POC; POC (Percent of control) AKT2 [31]: 96 POC |
| COc1ccc(Nc2ncc(CN3CCN(C(C)=O)CC3)cc2-c2nc(C)nc3[nH]cnc23)cn1 [Example 89, 1-(4-((6-(6-methoxypyridin-3-ylamino)-5-(2-methyl-9H-purin-6-yl)pyridin-3-yl)methyl)piperazin-1-yl)ethanone] | 96 POC | 96 POC | 95 POC | 99 POC | 107 POC | 92 POC | 98 POC | 80 POC | 100 POC | 88 POC | 91 POC | 108 POC | 94 POC | 93 POC | 99 POC | 98 POC | 102 POC | 97 POC | 92 POC | 100 POC | POC (Percent of control) PKA alpha [18]: 99 POC; POC (Percent of control) HGK [19]: 95 POC; POC (Percent of control) INSR [20]: 97 POC; POC (Percent of control) IGF1R [21]: 98 POC; POC (Percent of control) AURORA A [22]: 108 POC; POC (Percent of control) MSK1 [23]: 91 POC; POC (Percent of control) ROCK2 [24]: 101 POC; POC (Percent of control) ERK1 [25]: 100 POC; POC (Percent of control) SRC [26]: 101 POC; POC (Percent of control) cMET [27]: 102 POC; POC (Percent of control) FYN [28]: 99 POC; POC (Percent of control) FGFR1 [29]: 97 POC; POC (Percent of control) MARK1 [30]: 92 POC; POC (Percent of control) AKT2 [31]: 93 POC |
